Test results from US10544130B2, “Metallo-beta-lactamase inhibitors” (priority 2015, dated 2020).
Structures can show the parent of a compound that is named as a salt. Where two headings read alike, the source gives them in different places.

Key:
[1] = test system: Escherichia coli expressing NDM-1 (CLB30005, CLB30016); assay type: cell-based; conditions: with imipenem 1 μg/ml, 95% inhibition of bacterial growth
Summary of the method: (§1)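 Clinical strains were grown overnight at 35 °C on blood agar, adjusted to set OD600 in saline and diluted 1:100 into 1.1× CAMHB. Inhibitor was tested with and without imipenem at 1 μg/ml. After 22–24 h at 35 °C, absorbance was read to give synergistic concentration.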

[2] = test system: Serratia marcescens expressing IMP-1 (CL5741); assay type: cell-based; conditions: with imipenem 1 μg/ml, 95% inhibition of bacterial growth
Summary of the method: as §1

[3] = test system: Pseudomonas aeruginosa PAO1 MB9798 (efflux+, IMP-1); conditions: ratio MITC95 PA 9798/MITC95 PA 9799; imipenem at 2 μg/mL
Summary of the method: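 Isogenic PAO1 pair (efflux+ MB9798, efflux− MB9799, both IMP-1) tested by microbroth MIC with fixed imipenem and/or ceftazidime, usually at CLSI breakpoint, plus fixed class A/C inhibitor against AmpC. MBL inhibitor titrated; concentration restoring susceptibility recorded and fold difference between strains taken as efflux extent.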

Structure (SMILES)	Escherichia coli (NDM-1) MITC95 [1] [µM]	Serratia marcescens (IMP-1) MITC95 [2] [µM]	Efflux ratio [3]	Escherichia coli (NDM-1) MITC95 ([1]; CLB30016) [µM]	Serratia marcescens (IMP-1) MITC95 ([2]; CL5741) [µM]
CNc1ccc(-c2ccc(S(=O)(=O)N[C@@H]3CCNC3)c(S(N)(=O)=O)c2-c2nn[nH]n2)cn1 [Example 242]	0.7813	0.7813	1.00		
NCC(CO)(CO)NS(=O)(=O)c1ccc(-c2cccc3[nH]c(N)nc23)c(-c2nn[nH]n2)c1S(N)(=O)=O [Example 247, 4-(2-amino-1H-benzo[d]imidazol-4-yl)-N-1-(1-amino-3-hydroxy-2-(hydroxymethyl)propan-2-yl)-3-(2H-tetrazol-5-yl)benzene-1,2-disulfonamide]	0.7813	1.563	2.00		
C[N+]1(CCN)CC[C@H](NS(=O)(=O)c2ccc(-c3cccc4[nH]c(N)nc34)c(-c3nn[nH]n3)c2S(N)(=O)=O)C1 (stereo partly drawn) [Example 249, (3S)-3-{[4-(2-amino-1H-1,3-benzodiazol-4-yl)-2-sulfamoyl-3-(2H-1,2,3,4-tetrazol-5-yl)benzene]sulfonamido}-1-(2-aminoethyl)-1-methylpyrrolidin-1-ium methaneperoxoate]	0.3906	1.563			
Nc1nc2c(-c3ccc(S(=O)(=O)NC[C@@]4(N)CCNC4)c(S(N)(=O)=O)c3-c3nn[nH]n3)cccc2[nH]1 [Example 251, (R)-4-(2-amino-1H-benzo[d]imidazol-4-yl)-N1-((3-aminopyrrolidin-3-yl)methyl)-3-(2H-tetrazol-5-yl)benzene-1,2-disulfonamide]	0.7813	0.7813	1.00		
NCc1nc2c(-c3ccc(S(=O)(=O)NC[C@@H]4CNCCN4)c(S(N)(=O)=O)c3-c3nn[nH]n3)cccc2[nH]1 [Example 311, (S)-4-(2-(aminomethyl)-1H-benzo[d]imidazol-4-yl)-N-(piperazin-2-ylmethyl)-3-(2H-tetrazol-5-yl)benzene-1,2-disulfonamide]	1.563	1.563			
N[C@H](CO)c1nc2c(-c3ccc(S(=O)(=O)N[C@H]4CNC[C@H]4N)c(S(N)(=O)=O)c3-c3nn[nH]n3)cccc2[nH]1 [Example 323, 4-(2-((S)-1-amino-2-hydroxyethyl)-1H-benzo[d]imidazol-4-yl)-N1-((3S,4R)-4-aminopyrrolidin-3-yl)-3-(2H-tetrazol-5-yl)benzene-1,2-disulfonamide]	1.563		1.00		
NCCNS(=O)(=O)c1ccc(-c2cccc3[nH]c([C@@H](N)CO)nc23)c(-c2nn[nH]n2)c1S(N)(=O)=O [Example 331, (R)-4-(2-(1-amino-2-hydroxyethyl)-1H-benzo[d]imidazol-4-yl)-N1-(2-aminoethyl)-3-(2H-tetrazol-5-yl)benzene-1,2-disulfonamide]	1.563		1.00		
NCCNS(=O)(=O)c1ccc(-c2cccc3ncccc23)c(-c2nn[nH]n2)c1S(N)(=O)=O [Example 360, N1-(2-aminoethyl)-4-(quinolin-5-yl)-3-(2H-tetrazol-5-yl)benzene-1,2-disulfonamide]	1.563	1.563			
Nc1nc2c(-c3ccc(S(=O)(=O)NC[C@@]4(N)CCNC4)c(S(N)(=O)=O)c3-c3nn[nH]n3)cccc2s1 [Example 367, (R)-4-(2-aminobenzo[d]thiazol-4-yl)-N1-((3-aminopyrrolidin-3-yl)methyl)-3-(2H-tetrazol-5-yl)benzene-1,2-disulfonamide]	1.563		0.50		
C[C@H](CN)NS(=O)(=O)c1ccc(-c2cccc3[nH]c(CN)nc23)c(-c2nn[nH]n2)c1S(N)(=O)=O [Example 383, (R)-4-(2-(aminomethyl)-1H-benzo[d]imidazol-4-yl)-N1-(1-aminopropan-2-yl)-3-(2H-tetrazol-5-yl)benzene-1,2-disulfonamide]	0.7813		1.00		
C[C@H](CN)NS(=O)(=O)c1ccc(-c2cccn3ccnc23)c(-c2nn[nH]n2)c1S(N)(=O)=O [Example 384, (R)—N1-(1-aminopropan-2-yl)-4-(imidazo[1,2-a]pyridin-8-yl)-3-(2H-tetrazol-5-yl)benzene-1,2-disulfonamide]	1.563		0.50		
Nc1nc2c(-c3ccc(S(=O)(=O)NCC4(O)CNC4)c(S(N)(=O)=O)c3-c3nn[nH]n3)cccc2s1 [Example 387, 4-(2-amino-1,3-benzothiazol-4-yl)-N^1-[(3-hydroxyazetidin-3-yl)methyl]-3-(2H-tetrazol-5-yl)benzene-1,2-disulfonamide]	1.563	1.563			
C[N+](C)(C)CCCNS(=O)(=O)c1ccc(-c2cccc3sc(N)nc23)c(-c2nnn[nH]2)c1S(N)(=O)=O [Example 392, 3-({[4-(2-amino-1,3-benzothiazol-4-yl)-2-sulfamoyl-3-(1H-tetrazol-5-yl)phenyl]sulfonyl}amino)-N,N,N-trimethylpropan-1-amimum trifluoroacetate]	3.125	3.125			
C[C@@H](CN)NS(=O)(=O)c1ccc(-c2ccnc(N)c2)c(-c2nn[nH]n2)c1S(N)(=O)=O [Example 398, (S)-N^1-(1-aminopropan-2-yl)-4-(2-aminopyridin-4-yl)-3-(2H-tetrazol-5-yl)benzene-1,2-disulfonamide]	3.125	1.563			
NCC(CN)NS(=O)(=O)c1ccc(-c2cccc3[nH]nnc23)c(-c2nn[nH]n2)c1S(N)(=O)=O [Example 403, 4-(1H-benzo [d][1,2,3]triazol-4-yl)-N^1-(1,3-diaminopropan-2-yl)-3-(2H-tetrazol-5-yl)benzene-1,2-disulfonamide]	1.563	1.563			
NS(=O)(=O)c1c(S(=O)(=O)N[C@@H]2CNC[C@@H]2O)ccc(-c2cccc3[nH]nnc23)c1-c1nn[nH]n1 [Example 412, 4-(1H-benzo[d][1,2,3]triazol-4-yl)-N^1-((3R,4S)-4-hydroxypyrrolidin-3-yl)-3-(2H-tetrazol-5-yl)benzene-1,2-disulfonamide]	3.125	3.125			
NCc1sc(N)nc1-c1cccc(-c2ccc(S(=O)(=O)N[C@@H]3CCNC3)c(S(N)(=O)=O)c2-c2nnn[nH]2)c1 [Example 432, (R)-3′-(2-amino-5-(aminomethyl)thiazol-4-yl)-N^4-(pyrrolidin-3-yl)-2-(1H-tetrazol-5-yl)-[1,1′-biphenyl]-3,4-disulfonamide]	0.7813	0.7813			
C[C@H](N)Cc1nc2c(-c3ccc(S(N)(=O)=O)c(S(N)(=O)=O)c3-c3nn[nH]n3)cccc2[nH]1 [Example 442, (S)-4-(2-(2-aminopropyl)-1H-benzo[d]imidazol-4-yl)-3-(2H-tetrazol-5-yl)benzene-1,2-disulfonamide]	1.563	1.563			
NCCNS(=O)(=O)c1ccc(-c2cccc(NC(=O)[C@H](N)CO)c2)c(-c2nn[nH]n2)c1S(N)(=O)=O [Example 454, (R)-2-amino-N-(4′-(N-(2-aminoethyl)sulfamoyl)-3′-sulfamoyl-2′-(2H-tetrazol-5-yl)-[1,1′-biphenyl]-3-yl)-3-hydroxypropanamide]	1.563	3.125			
NCc1nc2cc(-c3ccc(S(=O)(=O)NC[C@H](O)CN)c(S(N)(=O)=O)c3-c3nn[nH]n3)ccc2s1 [Example 463, (R)—N1-(3-amino-2-hydroxypropyl)-4-(2-(aminomethyl)benzo[d]thiazol-5-yl)-3-(2H-tetrazol-5-yl)benzene-1,2-disulfonamide]	0.7813	0.7813			
CNc1nc2c(-c3ccc(S(=O)(=O)NCCN)c(S(N)(=O)=O)c3-c3nn[nH]n3)cccc2[nH]1 [Example 467, N1-(2-aminoethyl)-4-(2-(methylamino)-1H-benzo[d]imidazol-4-yl)-3-(2H-tetrazol-5-yl)benzene-1,2-disulfonamide]	0.7813	0.7813			
NS(=O)(=O)c1c(S(=O)(=O)N[C@@H]2CCNC2)ccc(-c2cccc(Nc3nc(CO)cs3)c2)c1-c1nn[nH]n1 [Example 470, (R)-3′-((4-(hydroxymethyl)thiazol-2-yl)amino)-N4-(pyrrolidin-3-yl)-2-(2H-tetrazol-5-yl)-[1,1′-biphenyl]-3,4-disulfonamide]	0.7813	1.563			
Nc1ccc(-c2ccc(S(=O)(=O)NC3CNC3)c(S(N)(=O)=O)c2-c2nn[nH]n2)cn1 [Example 493, 4-(6-aminopyridin-3-yl)-N1-(azetidin-3-yl)-3-(2H-tetrazol-5-yl)benzene-1,2-disulfonamide]	0.3906	0.3906			
NCCN1CC[C@@H](NS(=O)(=O)c2ccc(-c3ccc(N)nc3)c(-c3nn[nH]n3)c2S(N)(=O)=O)C1 [Example 500, (R)—N1-(1-(2-aminoethyl)pyrrolidin-3-yl)-4-(6-aminopyridin-3-yl)-3-(2H-tetrazol-5-yl)benzene-1,2-disulfonamide]				1.563	1.563
